Measured values: patent US11389415B2, “Methods of regulating cannabinoid receptor activity-related disorders and diseases” (The United States of America as represented by the …, priority 2012, dated 2022)
Where “and” joins values, the source holds several entries; their conditions need not be identical. Equal entries are not always repeated.

Legend:
HepG2 cells [1] = assay: Scratch wound-healing assay, HepG2 cells; type: cell-based, human; details: HepG2, 1 μM
Procedure: Scratch assays. These assays were carried out essentially as described previously (Fiori et al., Endocrinology 150: 2551-2560, 2009). In brief, cells were seeded in 12-well nontreated polystyrene cell culture plates with flat bottom (Greiner Bio-One, Monroe, N.C.). Once the cells became confluent, a scratch wound was made with a pipette tip and pictured immediately (time 0). […] Cell migration was examined at 12, 24, 36, 48 hours and 12, 18, 24, 48 hours after scratch for the HepG2 and PANC-1 cells, respectively. Images of the same field were taken every 3 hours to determine the rate of cell migration. Images were captured on an Axiovert 200 inverted microscope (Carl Zeiss, Thornwood, N.Y.) mounted with an AxioCam HRc digital camera (Carl Zeiss) and the measurement of scratch area was performed with ImageJ 1.46s software (National Institutes of Health, Bethesda, Md.). Each study was performed in duplicate dishes and repeated at least twice.

HepG2 cells [2] = assay: Cell cycle analysis by flow cytometry in HepG2 cells; type: cell-based, human; details: HepG2, 1 μM
Procedure: Cell Cycle Analysis. Cell cycle distributions were performed by flow cytometry on propidium iodide-stained nuclei prepared by the NIM technique. DNA histograms of at least 10,000 cells acquired on a Becton-Dickinson FACScanto II (BD Biosciences, San Jose, Calif.) were deconvoluted using the Multicycle program (Phoenix Flow Systems) for estimates of the percentage of cells in the G0/1, S, and G2+M phases of the cell cycle. Debris and doublets were removed from the analysis by software algorithms.

[3] = MNF accumulation in vivo in C6 glioma tumors; design: species or system mouse; details: C6 xenograft tumors at completion of study
Procedure: Evaluation of MNF accumulation in vivo in C6 glioma tumors. The accumulation of MNF in vivo in C6 tumor xenografts in athymic mice was assessed in comparison with vehicle-treated tumor-bearing animals. The frozen tumor samples were thawed, and then homogenized. The concentration of MNF and its metabolites was determined by HPLC followed by LC-MS/MS. In brief, the assays were conducted using an Eclipse XDB-C18 guard column (4.6 mm×12.5 mm) and an Atlantis HILIC column (150×2.1 mm ID, […]). The mobile phase consisted of water containing 0.1% formic acid as component A and acetonitrile as component B. A linear gradient was run as follows: 0 minutes 95% B; 5 minutes 60% B; 6 minutes 80% B; 10 minutes 95% B at a flow rate of 1.0 ml/minute. The total run time was 15 minutes per sample. Identification and quantification of the analytes was accomplished using an API-4000 LC-MS/MS in positive electrospray ionization mode and data was acquired employing multiple reaction monitoring (MRM) and the following MRM transitions: MNF (369-200); MNF-Gluc (545-200). Tumor tissues from vehicle-injected mice were used as controls.

[4] = Plasma and brain tissue concentrations after IV administration in Sprague-Dawley rats; type: in vivo, rat; details: for AUCinf / AUClast / Cmax / t1/2 (hr), elimination phase half life / C^0 (ng/ml), plasma concentration extrapolated to time 0 / Cl (ml/hr/kg), whole body clearance / V (l/kg), apparent volume of distribution: male Sprague-Dawley rats; for AUCinf / AUClast / Cmax / t1/2 (hr), elimination phase half life: plasma
Procedure: To determine plasma and brain tissue concentrations of MNF, the concentrations of MNF and its metabolites in plasma and brain tissue samples obtained from male Sprague-Dawley rats were determined after administration of a single IV dose of 10 mg/kg of MNF. The assays were conducted using an Eclipse XDB-C18 guard column (4.6 mm×12.5 mm) and an Atlantis HILIC column (150×2.1 mm ID, […]). The mobile phase consisted of water containing 0.1% formic acid as Component A and acetonitrile as component B. A linear gradient was run as follows: 0 minutes 95% B; 5 minutes 60% B; 6 minutes 80% B; 10 minutes 95% B at a flow rate of 1.0 ml/minutes. The total run time was 15 minutes per sample. Identification and quantification of the analytes was accomplished using an API-4000 LC-MS/MS in positive electrospray ionization mode and data was acquired employing multiple reaction monitoring (MRM) and the following MRM transitions: MNF (369-200); MNF-Gluc (545-200).
Ten mg/kg MNF was administered IV to male Sprague-Dawley rats and the plasma concentrations of MNF were determined between 10 minutes and 24 hours post administration with the levels measured in 3 animals per time point. In the same study, the concentration of MNF in brain tissue was measured between 10 and 60 minutes after administration with 3 animals per time point. The MNF concentration in brain tissue was 200 ng/mg tissue at 10 minutes after administration and peaked at 30 minutes at 800 ng/mg tissue. The relative distribution between the concentration of MNF in blood (measured as ng/ml) and brain tissue (measured as ng/mg tissue) was 0.2 at 10 minutes and 1.0 at 30 minutes and 60 minutes reflecting an equivalent distribution between both the central and peripheral body compartments. […] Further, the apparent volume of distribution (V) is high indicating extensive tissue distribution.

CAPAN = assay: tumor cell growth, CAPAN; details: read-out: IC50 (uM), CAPAN (Pancreatic C)
[5] = 10 mg/kg IV, individual rat, 10 mg/kg

## COc1ccc(C[C@@H](C)NC[C@H](O)c2cc(O)cc(O)c2)c2ccccc12 [(R,R′)-MNF, (R,R′)-4′-methoxy-1-naphthylfenoterol]
HepG2 cells [1]
  cell motility, compound alone: had no effect on the motility of HepG2 cells
HepG2 cells [1]; AM251 1 μM
  effect on AM251-mediated increase in cell motility: significant inhibitory effect toward AM251-mediated increase in cell motility
HepG2 cells [1]; O-1602 1 μM
  effect on wound closure evoked by O-1602: absent in HepG2 cells
HepG2 cells [2]; after 6 h (control 13.8±1.1%)
  G2/M-phase cell population: 10.2±0.9%
HepG2 cells [2]; after 6 h (control 34.7±0.3%)
  S-phase cell population: 34.1±0.9%
HepG2 cells [2]; after 12 h
  G2/M-phase cell population: 14.6±1.8%
  S-phase cell population: 13.7±1.2%
HepG2 cells [2]; after 24 h
  G2/M-phase cell population: 8.9±1.6%
  S-phase cell population: 24.6±4.2%
HepG2 cells [2]; by 12 hours
  number of sub-G1 events, maximum: 21.5±0.7%
[3]; cohort 1, n=9
  tissue concentration of MNF in tumor: 141.0±52.5 ng/ml/g tissue
[3]; cohort 2, n=7
  tissue concentration of MNF in tumor: 214.4±65.5 ng/ml/g tissue
[4]; 10 mg/kg IV, Mean
  AUCinf: 4378.0 ng·h/mL
  AUClast: 3519.3 ng·h/mL
  Cmax: 1823.0 ng/mL
  t1/2 (hr), elimination phase half life: 13.8 h
  C^0 (ng/ml), plasma concentration extrapolated to time 0: 3168.5 ng/mL
  Cl (ml/hr/kg), whole body clearance: 2339.1 mL/h/kg
  V (l/kg), apparent volume of distribution: 45.1 L/kg
[4]; [5]
  AUCinf: 4103.6 ng·h/mL and 5335.2 ng·h/mL and 3695.2 ng·h/mL
  AUClast: 3582.2 ng·h/mL and 4070.7 ng·h/mL and 2905.1 ng·h/mL
  Cmax: 1780.7 ng/mL and 2304.9 ng/mL and 1383.4 ng/mL
  t1/2 (hr), elimination phase half life: 9.8 h and 18.6 h and 13.0 h
  C^0 (ng/ml), plasma concentration extrapolated to time 0: 3033.4 ng/mL and 4131.4 ng/mL and 2340.7 ng/mL
  Cl (ml/hr/kg), whole body clearance: 2436.9 mL/h/kg and 1874.4 mL/h/kg and 2706.2 mL/h/kg
  V (l/kg), apparent volume of distribution: 34.3 L/kg and 50.4 L/kg and 50.6 L/kg
[4]; rats, 10 mg/kg IV, 10 minutes after administration
  MNF concentration in brain tissue: 200 ng/mg tissue
[4]; rats, 10 mg/kg IV, 30 minutes after administration
  MNF concentration in brain tissue (peak): 800 ng/mg tissue
[4]; rats, IV
  passage through the blood brain barrier: capable of passing through the blood brain barrier

## COc1cccc2c1C(=O)c1c(O)c3c(c(O)c1C2=O)C[C@@](O)(C(=O)CO)C[C@@H]3O[C@H]1C[C@H](N)[C@H](O)[C@H](C)O1 [Doxorubicin, reference compound]
CAPAN
  IC50: 0.23 µM
